Test results taken from paper PMC6156078, “Thalidomide promotes degradation of SALL4, a transcription factor implicated in Duane Radial Ray syndrome” (eLife, 2018).

How the values were obtained:
HNRNPH1 = assay: TMT proteomics H9 hESC: HNRNPH1 abundance; assay type: cell-based, human; conditions: H9 hES cells, 5 h vs DMSO; lenalidomide 5 µM
Excerpt: (§1) We established a mass spectrometry-based workflow (Figure 1—figure supplement 1A) to detect IMiD-induced protein degradation in hESC.
(§2) Proteins were precipitated using methanol/chloroform.

ST14 = assay: TMT proteomics MM1s cells: ST14 abundance; conditions: 5 h vs DMSO, lenalidomide 5 µM
OGDH = assay: TMT proteomics MM1s cells: OGDH abundance; conditions: 5 h vs DMSO, lenalidomide 5 µM
[1] = typical dose 200–400 mg thalidomide, 25 mg lenalidomide, 2 mg pomalidomide, ref Chen et al., 2017, Hoffmann et al., 2013, Teo et al., 2004, cited from earlier work
PPA1 = assay: TMT proteomics H9 hESC: PPA1 abundance; assay type: cell-based, human; conditions: H9 hES cells, 5 h vs DMSO; thalidomide 10 µM, lenalidomide 5 µM
Excerpt: as §1, §2

DYNC1H1 = assay: TMT proteomics Kelly cells: DYNC1H1 abundance; conditions: 5 h vs DMSO, lenalidomide 5 µM
HADHA = assay: TMT proteomics MM1s cells: HADHA abundance; conditions: 5 h vs DMSO, lenalidomide 5 µM
[2] = test system: IMiD-dependent neo-substrates; assay: TMT proteomics profiling of IMiD-dependent neo-substrates (hESC, Kelly, SK-N-DZ, MM1s); assay type: cell-based, human; conditions: for number of substrates identified (rank order): H9 hESC proteomics; for proteins degraded upon treatment (besides SALL4): H9 hESC, 5 h, 5 µM lenalidomide, 1 µM pomalidomide; for substrates robustly degraded (each drug in addition to the preceding one): proteomics across hESC, MM1s, Kelly, SK-N-DZ cells
Excerpt: as §1, §2

COX5A = assay: TMT proteomics Kelly cells: COX5A abundance; conditions: 5 h vs DMSO, pomalidomide 1 µM
IKZF1 = IKZF1 (Homo sapiens, UniProt Q13422+Q96SW2); assay: TMT proteomics MM1s cells: IKZF1 abundance; conditions: 5 h vs DMSO, thalidomide 10 µM, lenalidomide 5 µM, pomalidomide 1 µM
ZBTB39 [3] = molecular target: T1, ZBTB39 (Homo sapiens, UniProt O15060+Q96SW2); assay: TMT proteomics H9 hESC: ZBTB39 abundance; assay type: cell-based; conditions: H9 hES cells, 5 h vs DMSO; thalidomide 10 µM, lenalidomide 5 µM, pomalidomide 1 µM
Excerpt: as §1, §2

ILF3 = assay: Rescue proteomics SK-N-DZ cells: ILF3 abundance; conditions: 1 µM pomalidomide, 5 h vs DMSO, rescue experiment (source data 13)
SALL4 [4] = molecular target: T2, SALL4 (Homo sapiens, UniProt Q9UJQ4); assay: Western blot of SALL4 in H9 hESC; assay type: cell-based; set-up: endogenous in cells; host or cells: Kelly, H9 hESC, SK-N-DZ cells; conditions: increasing doses, 24 h
SALL4 [5] = molecular target: T2, SALL4; assay: TMT proteomics H9 hESC: SALL4 abundance; assay type: cell-based; conditions: H9 hES cells, 5 h vs DMSO; thalidomide 10 µM, lenalidomide 5 µM, pomalidomide 1 µM
Excerpt: as §1, §2

SALL4 [6] = molecular target: T2, SALL4; conditions: Kelly cells
DTWD1 = DTWD1 (Homo sapiens, UniProt Q8N5C7+Q96SW2); assay: TMT proteomics H9 hESC: DTWD1 abundance; assay type: cell-based; conditions: H9 hES cells, 5 h vs DMSO; thalidomide 10 µM, lenalidomide 5 µM, pomalidomide 1 µM
Excerpt: as §1, §2

[7] = test system: HIST1H4A; HIST1H4F; HIST1H4D; HIST1H4J; HIST2H4A; HIST2H4B; HIST1H4H; HIST1H4C; HIST4H4; HIST1H4E; HIST1H4I; HIST1H4B; HIST1H4K; HIST1H4L; assay: Rescue proteomics SK-N-DZ cells: histone H4 abundance; conditions: 1 µM pomalidomide, 5 h vs DMSO, rescue experiment (source data 13)
SALL4 [8] = molecular target: T2, SALL4; assay: Western blot of SALL4 in Kelly, SK-N-DZ, HEK293T and H661 cells; conditions: increasing concentrations, 24 h
IKZF3 = IKZF3 (Homo sapiens, UniProt Q96SW2+Q9UKT9); assay: TMT proteomics MM1s cells: IKZF3 abundance; conditions: 5 h vs DMSO, thalidomide 10 µM, lenalidomide 5 µM, pomalidomide 1 µM
ZBTB39 [9] = molecular target: T1, ZBTB39; assay: TMT proteomics SK-N-DZ cells: ZBTB39 abundance; conditions: 5 h vs DMSO, pomalidomide 1 µM, lenalidomide 5 µM, CC-220 0.1 µM, dBET57 1 µM
[10] = molecular target: hsSALL4ZnF2 / DDB1∆B-CRBN (Homo sapiens, UniProt Q96SW2+Q9UJQ4); assay: TR-FRET IMiD-dependent binding of SALL4ZnF2 to CRBN; conditions: DDB1∆B-CRBN 200 nM, hsSALL4ZnF2 100 nM
Excerpt: The TR-FRET signal of each data point was extracted by calculating the 520/490 nm ratios.

SALL4 [11] = assay: Western blot of SALL4 in CRBN-/- Kelly and HEK293T cells; assay type: cell-based, human; conditions: increasing concentrations, 24 h
SALL4 [12] = molecular target: T2, SALL4; assay: TMT proteomics Kelly cells: SALL4 abundance; conditions: 5 h vs DMSO, thalidomide 10 µM, lenalidomide 5 µM, pomalidomide 1 µM
ZFP91 [13] = molecular target: T3, ZFP91 (Homo sapiens, UniProt Q96JP5+Q96SW2); assay: TMT proteomics SK-N-DZ cells: ZFP91 abundance; conditions: 5 h vs DMSO, pomalidomide 1 µM, lenalidomide 5 µM, CC-220 0.1 µM, dBET57 1 µM
ZFP91 [14] = molecular target: T3, ZFP91; assay: TMT proteomics Kelly cells: ZFP91 abundance; conditions: 5 h vs DMSO, thalidomide 10 µM, lenalidomide 5 µM, pomalidomide 1 µM
ARPP19 = assay: TMT proteomics Kelly cells: ARPP19 abundance; conditions: 5 h vs DMSO, pomalidomide 1 µM
VRTN = molecular target: T4, VRTN (Homo sapiens, UniProt Q9H8Y1); assay: TMT proteomics H9 hESC: VRTN abundance; assay type: cell-based; conditions: H9 hES cells, 5 h vs DMSO; thalidomide 10 µM, pomalidomide 1 µM
T4 construct: endogenous in cells; host or cells: H9 hESC
Excerpt: as §1, §2

TLN2 = assay: Rescue proteomics SK-N-DZ cells: TLN2 abundance; conditions: 1 µM pomalidomide, 5 h vs DMSO, rescue experiment (source data 13)
RTN4 = assay: Rescue proteomics SK-N-DZ cells: RTN4 abundance; conditions: 1 µM pomalidomide, 5 h vs DMSO, rescue experiment (source data 13)
RAB28 [15] = molecular target: T5, RAB28 (Homo sapiens, UniProt P51157); assay: TMT proteomics MM1s cells: RAB28 abundance; conditions: 5 h vs DMSO, thalidomide 10 µM, lenalidomide 5 µM, pomalidomide 1 µM
GAP43 = assay: Rescue proteomics SK-N-DZ cells: GAP43 abundance; conditions: 1 µM pomalidomide, 5 h vs DMSO, rescue experiment (source data 13)
GZF1 = GZF1 (Homo sapiens, UniProt Q96SW2+Q9H116); assay: TMT proteomics SK-N-DZ cells: GZF1 abundance; conditions: 5 h vs DMSO, pomalidomide 1 µM, lenalidomide 5 µM, CC-220 0.1 µM, dBET57 1 µM
FAM83F = FAM83F (Homo sapiens, UniProt Q8NEG4); assay: TMT proteomics H9 hESC: FAM83F abundance; assay type: cell-based; conditions: H9 hES cells, 5 h vs DMSO; thalidomide 10 µM, lenalidomide 5 µM, pomalidomide 1 µM
Excerpt: as §1, §2

mmSALL4 = molecular target: T6, mmSALL4 (Mus musculus, UniProt Q8BX22); assay: Western blot of mmSALL4 in mouse embryonic stem cells; assay type: cell-based; conditions: increasing concentrations, 24 h
T6 construct: endogenous in cells; host or cells: TC1 mouse embryonic stem cells

CLIC4 = assay: TMT proteomics Kelly cells: CLIC4 abundance; conditions: 5 h vs DMSO, pomalidomide 1 µM
ZNF98 = ZNF98 (Homo sapiens, UniProt A6NK75+Q96SW2); assay: TMT proteomics SK-N-DZ cells: ZNF98 abundance; conditions: 5 h vs DMSO, pomalidomide 1 µM, lenalidomide 5 µM, CC-220 0.1 µM, dBET57 1 µM
RAB28 [16] = molecular target: T5, RAB28; assay: TMT proteomics SK-N-DZ cells: RAB28 abundance; conditions: 5 h vs DMSO, pomalidomide 1 µM, lenalidomide 5 µM, CC-220 0.1 µM, dBET57 1 µM
ZFP91 [17] = molecular target: T3, ZFP91; assay: TMT proteomics MM1s cells: ZFP91 abundance; conditions: 5 h vs DMSO, thalidomide 10 µM, lenalidomide 5 µM, pomalidomide 1 µM
SQRDL; SQOR = assay: TMT proteomics MM1s cells: SQRDL abundance; conditions: 5 h vs DMSO, pomalidomide 1 µM

T6 sequence (Q8BX22 whole entry): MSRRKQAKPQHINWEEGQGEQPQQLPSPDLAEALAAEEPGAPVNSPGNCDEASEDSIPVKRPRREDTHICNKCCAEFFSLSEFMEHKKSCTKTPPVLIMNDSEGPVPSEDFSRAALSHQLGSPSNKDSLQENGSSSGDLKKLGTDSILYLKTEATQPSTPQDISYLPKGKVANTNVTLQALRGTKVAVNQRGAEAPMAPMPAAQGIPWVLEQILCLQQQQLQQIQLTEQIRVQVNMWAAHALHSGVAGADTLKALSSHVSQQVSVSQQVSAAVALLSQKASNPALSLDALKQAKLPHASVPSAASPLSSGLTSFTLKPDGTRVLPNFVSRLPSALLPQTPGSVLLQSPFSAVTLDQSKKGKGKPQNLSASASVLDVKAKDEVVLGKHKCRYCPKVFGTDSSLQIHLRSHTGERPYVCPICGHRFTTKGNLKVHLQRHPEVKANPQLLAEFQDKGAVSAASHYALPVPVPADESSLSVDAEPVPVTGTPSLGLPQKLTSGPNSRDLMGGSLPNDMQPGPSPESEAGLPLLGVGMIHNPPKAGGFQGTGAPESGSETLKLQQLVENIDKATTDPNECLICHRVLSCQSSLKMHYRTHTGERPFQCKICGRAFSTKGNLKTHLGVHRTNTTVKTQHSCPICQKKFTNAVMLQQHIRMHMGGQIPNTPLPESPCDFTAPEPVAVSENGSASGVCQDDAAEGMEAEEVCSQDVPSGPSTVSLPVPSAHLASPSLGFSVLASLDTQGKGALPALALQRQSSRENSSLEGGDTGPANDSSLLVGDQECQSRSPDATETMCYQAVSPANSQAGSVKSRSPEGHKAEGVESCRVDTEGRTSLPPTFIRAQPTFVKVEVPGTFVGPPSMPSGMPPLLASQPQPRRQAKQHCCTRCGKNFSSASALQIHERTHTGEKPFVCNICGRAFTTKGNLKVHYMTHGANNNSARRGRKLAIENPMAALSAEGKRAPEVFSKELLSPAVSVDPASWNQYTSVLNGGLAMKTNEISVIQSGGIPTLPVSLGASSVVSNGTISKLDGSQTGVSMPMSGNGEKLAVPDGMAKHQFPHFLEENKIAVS
T4 sequence (Q9H8Y1 whole entry): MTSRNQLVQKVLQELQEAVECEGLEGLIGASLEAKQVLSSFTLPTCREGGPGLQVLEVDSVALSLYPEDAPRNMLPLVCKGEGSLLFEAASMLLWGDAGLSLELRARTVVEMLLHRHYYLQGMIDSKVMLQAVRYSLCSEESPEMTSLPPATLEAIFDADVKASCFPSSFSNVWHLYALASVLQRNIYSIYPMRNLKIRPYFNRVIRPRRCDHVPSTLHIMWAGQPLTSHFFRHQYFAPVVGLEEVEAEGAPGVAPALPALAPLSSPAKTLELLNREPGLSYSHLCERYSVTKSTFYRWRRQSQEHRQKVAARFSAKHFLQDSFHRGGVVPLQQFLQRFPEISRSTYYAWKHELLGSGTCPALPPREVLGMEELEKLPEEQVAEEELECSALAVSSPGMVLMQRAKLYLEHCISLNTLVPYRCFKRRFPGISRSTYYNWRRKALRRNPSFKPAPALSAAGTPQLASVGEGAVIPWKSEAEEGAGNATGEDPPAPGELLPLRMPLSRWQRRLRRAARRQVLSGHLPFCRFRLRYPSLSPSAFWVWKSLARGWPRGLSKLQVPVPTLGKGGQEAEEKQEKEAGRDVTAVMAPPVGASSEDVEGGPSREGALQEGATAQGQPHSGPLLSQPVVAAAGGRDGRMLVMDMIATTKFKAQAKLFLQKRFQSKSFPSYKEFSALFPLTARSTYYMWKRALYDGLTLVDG

Nc1cccc2c1CN(C1CCC(=O)NC1=O)C2=O (centres unmarked) [lenalidomide]
logFC HNRNPH1 (HNRNPH1): 0.1553 | logFC ST14 (ST14): -0.1872 | logFC OGDH (OGDH): 0.1359 | plasma half-life (t1/2) [1]: ~ 3 h | logFC PPA1 (PPA1): -0.1919 | logFC DYNC1H1 (DYNC1H1): 0.04048 | logFC HADHA (HADHA): 0.1826 | number of substrates identified (rank order) [2]: Thal < Len << Pom | proteins degraded upon treatment (besides SALL4) [2]: CSNK1A1 | substrates robustly degraded (each drug in addition to the preceding one) [2]: ZNF827, FAM83F, and RAB28 along with the lenalidomide-specific substrate CSNK1A1

Nc1cccc2c1C(=O)N(C1CCC(=O)NC1=O)C2=O (centres unmarked) [pomalidomide]
logFC COX5A (COX5A): 0.352 | logFC IKZF1 (IKZF1): -2.094 | logFC ZBTB39 (ZBTB39 [3]): -1.656 | logFC ILF3 (ILF3): -0.0757 | SALL4 protein levels (western blot) (SALL4 [4]): dose-dependent decrease in protein levels | logFC SALL4 (SALL4 [5]): -1.645 | earliest time of SALL4 degradation post treatment (SALL4 [6]; 1 or 5 µM pomalidomide): 4 h | time post washout at which SALL4 recovered to levels close to pre-treatment (SALL4 [6]; pomalidomide 8 h then washout): 48 h | logFC DTWD1 (DTWD1): -1.822 | logFC HIST1H4A (histone H4 genes) [7]: -0.1522 | SALL4 protein levels (western blot) (SALL4 [8]): dose-dependent decrease in SALL4 protein levels | logFC IKZF3 (IKZF3): -2.635 | logFC ZBTB39 (ZBTB39 [9]): -1.448 | rank order in binding observed with ZnF2 [10]: Pom >Thal >> Len | SALL4 degradation in CRBN-/- cells (SALL4 [11]): no degradation of SALL4 was observed | plasma half-life (t1/2) [1]: ~ 9 h | Cmax ([1]; read-out: maximum plasma concentration (Cmax)): 50 nM | logFC SALL4 (SALL4 [12]): -1.873 | logFC ZFP91 (ZFP91 [13]): -1.944 | logFC ZFP91 (ZFP91 [14]): -0.9865 | logFC ARPP19 (ARPP19): 0.611 | logFC VRTN (VRTN): -0.4677 | logFC TLN2 (TLN2): -0.06109 | logFC RTN4 (RTN4): -0.1703 | logFC RAB28 (RAB28 [15]): -1.819 | logFC GAP43 (GAP43): -0.1693 | number of substrates identified (rank order) [2]: Thal < Len << Pom | proteins degraded upon treatment (besides SALL4) [2]: ZFP91 ([An et al., 2017]) and the largely uncharacterized proteins ZBTB39, FAM83F, WIZ, RAB28, and DTWD1 | substrates robustly degraded (each drug in addition to the preceding one) [2]: ZBTB39, ZFP91, DTWD1, and ZNF653 | logFC GZF1 (GZF1): -0.5859 | logFC FAM83F (FAM83F): -1.309 | degradation of mmSALL4 in mESC (mmSALL4): does not promote degradation of mmSALL4 | logFC CLIC4 (CLIC4): -0.176 | logFC ZNF98 (ZNF98): -1.487 | logFC RAB28 (RAB28 [16]): -1.455 | logFC ZFP91 (ZFP91 [17]): -1.964 | logFC SQRDL; SQOR (SQRDL; SQOR): 0.2873
